Measured values published in patent US20240217978A1 (CHONG KUN DANG PHARMACEUTICAL CORP., priority 2021, published 2024).
pIC50: −log10 of the molar value.

biological target: human adenosine A2a receptor (Homo sapiens (Human), UniProt P29274); test: A2a receptor binding affinity, [3H]-NECA radioligand binding test; details: [3H]-NECA 37 nM; membrane from HEK-293 cells transfected with human adenosine A2a receptor
In short: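 Membranes from HEK-293 cells expressing human A2a receptor were incubated with [3H]-NECA (final 37 nM) and compound for 1 h at room temperature in 50 mM Tris, 10 mM MgCl2, 1 mM EDTA, pH 7.4. Bound ligand was filtered on PEI-coated plates and counted by scintillation to derive IC50 (μM).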

Chain of human adenosine A2a receptor (P29274 whole entry): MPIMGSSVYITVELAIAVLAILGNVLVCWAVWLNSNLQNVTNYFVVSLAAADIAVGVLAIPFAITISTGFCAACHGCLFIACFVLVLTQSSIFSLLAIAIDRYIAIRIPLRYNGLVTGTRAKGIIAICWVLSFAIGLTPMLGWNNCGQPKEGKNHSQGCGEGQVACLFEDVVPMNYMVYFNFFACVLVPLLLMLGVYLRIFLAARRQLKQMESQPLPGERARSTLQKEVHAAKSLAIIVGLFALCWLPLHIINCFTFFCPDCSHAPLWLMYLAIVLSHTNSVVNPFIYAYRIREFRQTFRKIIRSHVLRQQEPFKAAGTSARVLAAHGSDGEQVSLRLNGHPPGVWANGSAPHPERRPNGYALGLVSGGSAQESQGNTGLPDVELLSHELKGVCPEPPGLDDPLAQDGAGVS

SMILES | pIC50
CC(C)[C@H](Nc1nc(N)n2nc(-c3ccco3)nc2n1)C(=O)N1CCN(Cc2ccc(F)cc2F)CC1 [Example 57, (S)-2-((7-amino-2-(furan-2-yl)-[1,2,4]triazolo[1,5-a][1,3,5]triazin-5-yl)amino)-1-(4-(2,4-difluorobenzyl)piperazin-1-yl)-3-methylbutan-1-one] | 8.15
Nc1nc(NCC(=O)N2CCN(Cc3ccc(F)cc3F)CC2)nc2nc(-c3ccco3)nn12 [Example 15, 2-((7-amino-2-(furan-2-yl)-[1,2,4]triazolo[1,5-a][1,3,5]triazin-5-yl)amino)-1-(4-(2,4-difluorobenzyl)piperazin-1-yl)ethan-1-one] | 8.22
Nc1nc(N2CCC[C@H]2C(=O)N2CCN(CC(F)(F)C(F)F)CC2)nc2oc(-c3ccco3)nc12 [Example 271, (S)-(1-(7-amino-2-(furan-2-yl)oxazolo[5,4-d]pyrimidin-5-yl)pyrrolidin-2-yl)(4-(2,2,3,3-tetrafluoropropyl)piperazin-1-yl)methanone] | 8.00
Nc1nc(N2CC[C@H]2C(=O)N2CCC(C3CCN(CC(F)(F)C(F)(F)F)CC3)CC2)nc2nc(-c3ccco3)nn12 [Example 326, (S)-(1-(7-amino-2-(furan-2-yl)-[1,2,4]triazolo[1,5-a][1,3,5]triazin-5-yl)azetidin-2-yl)(1′-(2,2,3,3,3-pentafluoropropyl)-[4,4′-bipiperidin]-1-yl)methanone] | 9.10
CCCCN1CCN(C(=O)[C@@H](Nc2nc(N)n3nc(-c4ccco4)nc3n2)C2CCCCC2)CC1 [Example 187, (S)-2-((7-amino-2-(furan-2-yl)-[1,2,4]triazolo[1,5-a][1,3,5]triazin-5-yl)amino)-1-(4-butylpiperazin-1-yl)-2-cyclohexylethan-1-one] | 8.00
CC(C)(O)CC(=O)N1CCC(C2CCN(C(=O)[C@@H]3CCN3c3nc(N)n4nc(-c5ccco5)nc4n3)CC2)CC1 [Example 327, (S)-1-(1′-(1-(7-amino-2-(furan-2-yl)-[1,2,4]triazolo[1,5-a][1,3,5]triazin-5-yl)azetidine-2-carbonyl)-[4,4′-bipiperidin]-1-yl)-3-hydroxy-3-methylbutan-1-one] | 7.96
Nc1nc(N[C@@H](Cc2ccccc2)C(=O)N2CCCN(Cc3ccccc3)CC2)nc2nc(-c3ccco3)nn12 [Example 20, (S)-2-((7-amino-2-(furan-2-yl)-[1,2,4]triazolo[1,5-a][1,3,5]triazin-5-yl)amino)-1-(4-benzyl-1,4-diazepan-1-yl)-3-phenylpropan-1-one] | 7.70
CC(C)(O)CC(=O)N1CCN(C(=O)[C@@H]2CCN2c2nc(N)c3nc(-c4ccco4)sc3n2)CC1 [Example 275, (S)-1-(4-(1-(7-amino-2-(furan-2-yl)thiazolo[5,4-d]pyrimidin-5-yl)azetidin-2-carbonyl)piperazin-1-yl)-3-hydroxy-3-methylbutan-1-one] | 7.59
Cc1ccc(-c2nc3nc(N4CCC[C@H]4C(=O)N4CCC(C5CCN(CC(F)(F)F)CC5)CC4)nc(N)n3n2)o1 [Example 197, (S)-(1-(7-amino-2-(5-methylfuran-2-yl)-[1,2,4]triazolo[1,5-a][1,3,5]triazin-5-yl)pyrrolidin-2-yl)(1′-(2,2,2-trifluoroethyl)-[4,4′-bipiperidin]-1-yl)methanone] | 8.52
Nc1nc(N2CCC[C@H]2C(=O)N2CCN(CC3(C(F)(F)F)CC3)CC2)nc2nc(-c3ccco3)nn12 [Example 283, (S)-(1-(7-amino-2-(furan-2-yl)-[1,2,4]triazolo[1,5-a][1,3,5]triazin-5-yl)pyrrolidin-2-yl)(4-((1-(trifluoromethyl)cyclopropyl)methyl)piperazin-1-yl)methanone] | 7.92
Nc1nc(N2CCC[C@H]2C(=O)N2CCC(C3CCN(C(=O)c4ccccc4)CC3)CC2)nc2nc(-c3ccco3)nn12 [Example 161, (1′-((7-amino-2-(furan-2-yl)-[1,2,4]triazolo[1,5-a][1,3,5]triazin-5-yl)-L-prolyl)-[4,4′-bipiperidin]-1-yl)(phenyl)methanone] | 8.05
C[C@H](Nc1cc2nc(-c3ccco3)nn2c(N)n1)C(=O)N1CCN(CC(C)(C)F)CC1 [Example 375, (S)-2-((5-amino-2-(furan-2-yl)-[1,2,4]triazolo[1,5-c]pyrimidin-7-yl)amino)-1-(4-(2-fluoro-2-methylpropyl)piperazin-1-yl)propan-1-one] | 8.10
Nc1nc(N2CCC[C@H]2C(=O)N2CCN(C(=O)C3CCS(=O)(=O)CC3)CC2)nc2nc(-c3ccco3)nn12 [Example 106] | 8.15
Nc1nc(N2CCC[C@H]2C(=O)N2CCC(F)(F)CC2)nc2nc(-c3ccco3)nn12 [Example 55, (S)-(1-(7-amino-2-(furan-2-yl)-[1,2,4]triazolo[1,5-a][1,3,5]triazin-5-yl)pyrrolidin-2-yl)(4,4-difluoropiperidin-1-yl)methanone] | 7.80
Nc1nc(N[C@@H](Cc2ccccc2)C(=O)N2CCC(N3CCOCC3)CC2)nc2nc(-c3ccco3)nn12 [Example 19, (S)-2-((7-amino-2-(furan-2-yl)-[1,2,4]triazolo[1,5-a][1,3,5]triazin-5-yl)amino)-1-(4-morpholinopiperidin-1-yl)-3-phenylpropan-1-one] | 7.82
CCCCCN1CCN(C(=O)[C@@H]2CCCN2c2nc(N)n3nc(-c4ccco4)nc3n2)CC1 [Example 138, (S)-(1-(7-amino-2-(furan-2-yl)-[1,2,4]triazolo[1,5-a][1,3,5]triazin-5-yl)pyrrolidin-2-yl)(4-pentylpiperazin-1-yl)methanone] | 8.70
CC(C)(O)CN1CCC(C2CCN(C(=O)[C@@H]3CCN3c3cc4nc(-c5ccco5)nn4c(N)n3)CC2)CC1 [Example 381, (S)-(1-(5-amino-2-(furan-2-yl)-[1,2,4]triazolo[1,5-c]pyrimidin-7-yl)azetidin-2-yl)(1′-(2-hydroxy-2-methylpropyl)-[4,4′-bipiperidin]-1-yl)methanone] | 8.05
CCC[C@H](Nc1nc(N)n2nc(-c3ccco3)nc2n1)C(=O)N1CCN(c2ccc(F)cc2F)CC1 [Example 163, (S)-2-((7-amino-2-(furan-2-yl)-[1,2,4]triazolo[1,5-a][1,3,5]triazin-5-yl)amino)-1-(4-(2,4-difluorophenyl)piperazin-1-yl)pentan-1-one] | 9.30
COCCN1CCN(C(=O)[C@@H](Nc2nc(N)n3nc(-c4ccco4)nc3n2)C(C)C)CC1 [Example 60, (S)-2-((7-amino-2-(furan-2-yl)-[1,2,4]triazolo[1,5-a][1,3,5]triazin-5-yl)amino)-1-(4-(2-methoxyethyl)piperazin-1-yl)-3-methylbutan-1-one] | 7.74

The remaining lines, values ahead:

pIC50 | SMILES
7.89 | C[C@H](Nc1nc(N)n2nc(-c3ccco3)nc2n1)C(=O)N1CCN(c2nccs2)CC1 [Example 251, (S)-2-((7-amino-2-(furan-2-yl)-[1,2,4]triazolo[1,5-a][1,3,5]triazin-5-yl)amino)-1-(4-(thiazol-2-yl)piperazin-1-yl)propan-1-one]
7.91 | C[C@H](Nc1nc(N)n2nc(-c3ccco3)nc2n1)C(=O)N1CCN(CC(C)(C)O)CC1 [Example 349, (S)-2-((7-amino-2-(furan-2-yl)-[1,2,4]triazolo[1,5-a][1,3,5]triazin-5-yl)amino)-1-(4-(2-hydroxy-2-methylpropyl)piperazin-1-yl)propan-1-one]
8.52 | CC(C)(F)CN1CCC(C2CCN(C(=O)[C@@H]3CCN3c3cc4nc(-c5ccco5)nn4c(N)n3)CC2)CC1 [Example 382, (S)-(1-(5-amino-2-(furan-2-yl)-[1,2,4]triazolo[1,5-c]pyrimidin-7-yl)azetidin-2-yl)(1′-(2-fluoro-2-methylpropyl)-[4,4′-bipiperidin]-1-yl)methanone]
8.00 | Nc1nc(N2CCC[C@H]2C(=O)N2CCC(CN3CCC(C(F)(F)F)CC3)CC2)nc2nc(-c3ccco3)nn12 [Example 331, (S)-(1-(7-amino-2-(furan-2-yl)-[1,2,4]triazolo[1,5-a][1,3,5]triazin-5-yl)pyrrolidin-2-yl)(4-((4-(trifluoromethyl)piperidin-1-yl)methyl)piperidin-1-yl)methanone]
8.70 | Cc1ccc(-c2nc3nc(N4CCC[C@H]4C(=O)N4CCN(c5ccccc5)CC4)nc(N)n3n2)o1 [Example 199, (S)-(1-(7-amino-2-(5-methylfuran-2-yl)-[1,2,4]triazolo[1,5-a][1,3,5]triazin-5-yl)pyrrolidin-2-yl)(4-phenylpiperazin-1-yl)methanone]
8.30 | CC(F)(F)CN1CCC(C2CCN(C(=O)[C@@H]3CCN3c3nc(N)n4nc(-c5ccco5)nc4n3)CC2)CC1 [Example 324, (S)-(1-(7-amino-2-(furan-2-yl)-[1,2,4]triazolo[1,5-a][1,3,5]triazin-5-yl)azetidin-2-yl)(1′-(2,2-difluoropropyl)-[4,4′-bipiperidin]-1-yl)methanone]
7.92 | CCC(O)(CC)CN1CCN(C(=O)[C@@H]2CCCN2c2nc(N)n3nc(-c4ccc(C)o4)nc3n2)CC1 [Example 88, (S)-(1-(7-amino-2-(5-methylfuran-2-yl)-[1,2,4]triazolo[1,5-a][1,3,5]triazin-5-yl)pyrrolidin-2-yl)(4-(2-ethyl-2-hydroxybutyl)piperazin-1-yl) methanone]
8.10 | Nc1nc(N2CCC[C@H]2C(=O)N2CC(COc3ccccc3)C2)nc2nc(-c3ccco3)nn12 [Example 114, (S)-(1-(7-amino-2-(furan-2-yl)-[1,2,4]triazolo[1,5-a][1,3,5]triazin-5-yl)pyrrolidin-2-yl)(3-(phenoxymethyl)azetidin-1-yl)methanone]
7.55 | Nc1nc(N2CCC[C@H]2C(=O)N2CCN(C3CC3)CC2)nc2nc(-c3ccco3)nn12 [Example 139, (S)-(1-(7-amino-2-(furan-2-yl)-[1,2,4]triazolo[1,5-a][1,3,5]triazin-5-yl)pyrrolidin-2-yl)(4-cyclopropylpiperazin-1-yl)methanone]
7.82 | CC[C@H](Nc1nc(N)n2nc(-c3ccco3)nc2n1)C(=O)N1CCN(CC(F)(F)F)CC1 [Example 211, (S)-2-((7-amino-2-(furan-2-yl)-[1,2,4]triazolo[1,5-a][1,3,5]triazin-5-yl)amino)-1-(4-(2,2,2-trifluoroethyl)piperazin-1-yl)butan-1-one]
